Data reported in PubChem BioAssay AID330 (DTP/NCI, 2004).
Where “and” joins values, the source holds several entries; their conditions need not be identical. Equal entries are not always repeated. Inconclusive results and toxic doses are left out. How the source made its calls: active means survival T/C of 150% or more; inactive means T/C below 125% in these data.

Tested on: P388 leukemia ip, CD2F1 mice, survival T/C
Test: NCI In Vivo Anticancer Drug Screen. Data for tumor model P388 Leukemia (intraperitoneal) in CD2F1 (CDF1) mice
Details: endpoint: median survival time, higher = longer survival
In short: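 Mice carrying the transplanted tumor received test compound or vehicle. Survival was recorded in each group, and the value is the treated-group measurement divided by that of the vehicle-treated control group.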

[1] = dose: 100.0 mg/kg/injection, schedule: Q04DX002 (ip), vehicle: saline with Tween-80
[2] = dose: 60.0 mg/kg/injection, schedule: Q01DX005 (ip), vehicle: saline with Tween-80
[3] = dose: 120.0 mg/kg/injection, schedule: Q01DX005 (ip), vehicle: saline with Tween-80
[4] = dose: 240.0 mg/kg/injection, schedule: Q01DX005 (ip), vehicle: saline with Tween-80
[5] = dose: 50.0 mg/kg/injection, schedule: Q01DX005 (ip), vehicle: saline with Tween-80
[6] = dose: 100.0 mg/kg/injection, schedule: Q01DX005 (ip), vehicle: saline with Tween-80
[7] = dose: 200.0 mg/kg/injection, schedule: Q01DX005 (ip), vehicle: saline with Tween-80
[8] = dose: 100.0 mg/kg/injection, schedule: Q01DX001 (ip), vehicle: saline with Tween-80
[9] = dose: 50.0 mg/kg/injection, schedule: Q01DX005 (ip), vehicle: Klucel (hydroxypropylcellulose) (HPC)
[10] = dose: 100.0 mg/kg/injection, schedule: Q01DX005 (ip), vehicle: Klucel (hydroxypropylcellulose) (HPC)
[11] = dose: 200.0 mg/kg/injection, schedule: Q01DX005 (ip), vehicle: Klucel (hydroxypropylcellulose) (HPC)
[12] = dose: 100.0 mg/kg/injection, schedule: Q01DX009 (ip), vehicle: Klucel (hydroxypropylcellulose) (HPC)
[13] = dose: 200.0 mg/kg/injection, schedule: Q01DX009 (ip), vehicle: Klucel (hydroxypropylcellulose) (HPC)
[14] = dose: 100.0 mg/kg/injection, schedule: Q04DX003 (ip), vehicle: saline with Tween-80
[15] = dose: 200.0 mg/kg/injection, schedule: Q04DX003 (ip), vehicle: saline with Tween-80
[16] = dose: 400.0 mg/kg/injection, schedule: Q04DX003 (ip), vehicle: saline with Tween-80
[17] = dose: 25.0 mg/kg/injection, schedule: Q01DX005 (ip), vehicle: saline
[18] = dose: 50.0 mg/kg/injection, schedule: Q01DX005 (ip), vehicle: saline

Measured: T/C

CCCCN=[N+]=[N-]
inactive: dose: 12.5 mg/kg/injection, schedule: Q01DX009 (ip), vehicle: water 91 % of control | dose: 25.0 mg/kg/injection, schedule: Q01DX009 (ip), vehicle: water 98 % of control | dose: 50.0 mg/kg/injection, schedule: Q01DX009 (ip), vehicle: water 98 % of control | dose: 100.0 mg/kg/injection, schedule: Q01DX009 (ip), vehicle: water 100 % of control | dose: 200.0 mg/kg/injection, schedule: Q01DX009 (ip), vehicle: water 96 % of control

COC(=O)C(CC=C(C)C)(CC=C(C)C)C(C)=O
inactive: dose: 100.0 mg/kg/injection, schedule: Q04DX002 (ip), vehicle: saline 104 % of control | dose: 200.0 mg/kg/injection, schedule: Q04DX002 (ip), vehicle: saline 100 % of control | dose: 400.0 mg/kg/injection, schedule: Q04DX002 (ip), vehicle: saline 113 % of control

CCOC(=O)C1C(=O)N2C(=O)C(NC(C)=O)=C(O)C2C1c1ccc(OC)cc1 (stereo not drawn)
inactive: [1] 100 % of control | dose: 200.0 mg/kg/injection, schedule: Q04DX002 (ip), vehicle: saline with Tween-80 100 % of control | dose: 400.0 mg/kg/injection, schedule: Q04DX002 (ip), vehicle: saline with Tween-80 98 % of control

COc1cccc2c1C(=O)c1c(O)c3c(c(O)c1C2=O)C[C@@](O)(C(=O)CO)C[C@@H]3OC1CC(NC(=O)CN)C(O)C(C)O1 (stereo partly drawn)
inactive: dose: 25.0 mg/kg/injection, schedule: Q01DX009 (ip), vehicle: other 93 % of control | dose: 50.0 mg/kg/injection, schedule: Q01DX009 (ip), vehicle: other 94 % of control | dose: 100.0 mg/kg/injection, schedule: Q01DX009 (ip), vehicle: other 96 % of control

COc1ccc(C(c2c(O)c3ccccc3oc2=O)c2c(O)c3ccccc3oc2=O)c(OC)c1
inactive: [2] 106 % of control | [3] 98 % of control | [4] 94 % of control

O=C(O)CCC(=O)C(Cc1ccccc1)NC(=O)c1ccccc1 (stereo not drawn)
inactive: [5] 94 % of control | [2] 91 % of control | [6] 89 % of control | [3] 100 % of control | [7] 100 % of control | [4] 98 % of control

C=C1C(=O)OC2C=CCCCC12 (stereo not drawn)
inactive: dose: 50.0 mg/kg/injection, schedule: Q01DX001 (ip), vehicle: saline with Tween-80 105 % of control | [8] 102 % of control

O=c1n(-c2ccccc2)c(=O)n2n1C1CC3c4ccccc4C1C2C31CC1 (stereo not drawn)
inactive: [5] 104 % of control | [6] 101 % of control | [7] 92 % of control

Nc1cccc2c1C(=O)c1ccc(Cl)cc1C2=O
inactive: [9] 99 % of control | [10] 94 % of control | [11] 99 % of control

O=C(OC1COC(Br)C(OC(=O)c2ccccc2)C1OC(=O)c1ccccc1)c1ccccc1 (stereo not drawn)
inactive: [12] 100 % of control | [13] 100 % of control | dose: 400.0 mg/kg/injection, schedule: Q01DX009 (ip), vehicle: Klucel (hydroxypropylcellulose) (HPC) 90 % of control

C/C=C(\C)C(=O)OCC1(C)C(OC(=O)/C(C)=C/C)CCC2(C)C3C(=O)C=C(C)C2C31 (stereo not drawn)
inactive: dose: 25.0 mg/kg/injection, schedule: Q04DX002 (ip), vehicle: saline with Tween-80 110 % of control | dose: 50.0 mg/kg/injection, schedule: Q04DX002 (ip), vehicle: saline with Tween-80 94 % of control | [1] 97 % of control

Cc1cccc(NNC(=S)Nc2ccccc2)c1
inactive: [14] 95 % of control | [15] 100 % of control | [16] 90 % of control

O=C(O)CCC(=O)CCC(=O)c1ccc(O)c2ncccc12
inactive: [9] 92 % of control | [10] 105 % of control | [11] 111 % of control

c1ccc2nc(N3CCCCC3)c(N3CCCCCC3)nc2c1
inactive: [9] 97 % of control | [10] 100 % of control | [11] 99 % of control

O=C1c2ccccc2C(=O)c2c(I)cccc21
inactive: [5] 97 % of control | [6] 97 % of control

C1CC[N-]CC1.C1CC[N-]CC1.[Co].[N-]=C=S.[N-]=C=S
inactive: [8] 100 % of control

NC(CCC(=O)NC(CSSCC(NC(=O)CCC(N)C(=O)O)C(=O)O)C(=O)O)C(=O)O (stereo not drawn)
inactive: dose: 12.5 mg/kg/injection, schedule: Q01DX005 (ip), vehicle: saline 94 % of control | [17] 99 % of control | [18] 99 % of control

CC(C)OCCCN(Cn1c(=S)sc2ccccc21)Cn1c(=S)sc2ccccc21
inactive: dose: 50.0 mg/kg/injection, schedule: Q01DX009 (ip), vehicle: Klucel (hydroxypropylcellulose) (HPC) 91 % of control | [12] 89 % of control | [13] 87 % of control

COc1ccccc1Nc1nc(-c2ccc(O)c(O)c2)cs1
inactive: [5] 97 % of control | [6] 89 % of control | [7] 103 % of control

NC(=S)c1ccc(/C=N/c2nccs2)cc1
inactive: dose: 100.0 mg/kg/injection, schedule: Q01DX001 (ip), vehicle: Klucel (hydroxypropylcellulose) (HPC) 105 % of control | dose: 200.0 mg/kg/injection, schedule: Q01DX001 (ip), vehicle: Klucel (hydroxypropylcellulose) (HPC) 104 % of control | dose: 400.0 mg/kg/injection, schedule: Q01DX001 (ip), vehicle: Klucel (hydroxypropylcellulose) (HPC) 105 % of control

COc1ccc(OC)c2c(Cl)cc(NCCCN3CCN(CCCNc4cc(Cl)c5c(OC)ccc(OC)c5n4)CC3)nc12
inactive: [9] 97 % of control | [10] 93 % of control | [11] 90 % of control

COC(=O)C12OCC34C(CC5C(C)=C(O)C(=O)CC5(C)C3C(O)C1O)OC(=O)C(OC(=O)C=C(C)C)C24 (stereo not drawn) (tested in a mixture with another compound)
inactive: dose: 0.03 mg/kg/injection, schedule: Q01DX009 (ip), vehicle: saline + alcohol 106 % of control | dose: 0.06 mg/kg/injection, schedule: Q01DX009 (ip), vehicle: saline + alcohol 113 % of control | dose: 0.13 mg/kg/injection, schedule: Q01DX009 (ip), vehicle: saline + alcohol 107 % of control | dose: 0.25 mg/kg/injection, schedule: Q01DX009 (ip), vehicle: saline + alcohol 98 % of control | dose: 0.5 mg/kg/injection, schedule: Q01DX009 (ip), vehicle: saline + alcohol 94 % of control | dose: 1.0 mg/kg/injection, schedule: Q01DX009 (ip), vehicle: saline + alcohol 106 % of control | dose: 2.0 mg/kg/injection, schedule: Q01DX009 (ip), vehicle: saline + alcohol 94 % of control

CS[C@@H]1C[C@H]2[C@@H]3CCC4=CC(=O)CC[C@]4(C)[C@H]3CC[C@]2(C)[C@H]1C(C)=O
inactive: dose: 12.5 mg/kg/injection, schedule: Q01DX009 (ip), vehicle: saline with Tween-80 90 % of control | dose: 25.0 mg/kg/injection, schedule: Q01DX009 (ip), vehicle: saline with Tween-80 90 % of control | dose: 50.0 mg/kg/injection, schedule: Q01DX009 (ip), vehicle: saline with Tween-80 100 % of control | [14] 100 % of control | [15] 90 % of control | [16] 100 % of control

CCOC(=O)C(=CNc1cc(C)c2[nH]c3ccc(Br)cc3c2c1C)C(=O)OCC
inactive: [2] 93 % of control | [3] 93 % of control | [4] 86 % of control and 93 % of control

CC(C)(C)N1CS[C@@H]2CCCC[C@H]21
inactive: [17] 104 % of control | [18] 92 % of control | dose: 100.0 mg/kg/injection, schedule: Q01DX005 (ip), vehicle: saline 111 % of control
